Results published in US20140094413A1, “HEPATOCYTE GROWTH FACTOR (HGF) MIMICS AS THERAPEUTIC AGENTS” (WASHINGTON STATE UNIVERSITY, priority 2012, published 2014).
“And” between values parts separate entries of the source, which are not always exact repeats. Equal entries are not always repeated. “Also recorded” adds a separate entry of the source. Where a SMILES comes first, the peptide text is derived from it. [ ]: non-standard residue; d: D form. The star is where a group is joined. Hexanoyl = CCCCCC(=O)*; Ahx = NCCCCCC(=O)O

Tests used:
c-Met receptor = assay: c-Met phosphorylation in acute adult rat hippocampal slices; format: cell-based; settings: 30 minutes
Excerpt: Adult Sprague-Dawley rats (250 g+) obtained from Harlan Laboratories (Ca, USA) were anesthetized with isofluorane (Vet One™, MWI, Meridian, Id., USA) and decapitated. The brain was rapidly removed and placed into ice-chilled artificial cerebrospinal fluid (aCSF) for approximately 30 s. Both hemispheres were separated by a mid-saggital cut and both hippocampi removed. Slices were sectioned cross- and length-wise (400 μm) to ensure penetrability of the drug, using a McIlwain tissue chopper (Brinkmann, Gomshall, UK) and transferred to a gassed (95% O2/5% CO2) incubation chamber containing aCSF for 90 minutes at room temperature. Slices were transferred to fresh tubes, aCSF was removed by careful suctioning and replaced with aCSF containing vehicle (aCSF+aCSF), 100 ng/ml with carrier free adult recombinant Hepatocyte Growth Factor (HGF) (R and D Systems, MN, USA) in aCSF, 10^−10 M Hinge (Harding lab), […], 10^−10 M Dihexa (Harding lab) in aCSF, 10^−12 M Dihexa in aCSF or 50 ng/ml HGF+10^−12 M Dihexa in aCSF for 30 minutes at 37° C. with gentle rocking. aCSF was removed and the slices were lysed using RIPA buffer (Upstate/Milipore, Billerica, Mass.) and inhibitor Cocktails I and II (Sigma, St. Louis, Mo.), sonicated on ice and clarified by centrifugation for 30 minutes, 13,000 rpm at 4° C. The supernatant was removed from the pellet and stored at −80° C. or processed immediately for gel electrophoresis.
Protein concentration of the samples was quantified using the BCA method (Pierce, Rockford, Ill.) following the manufacturers protocol. Samples were added to SDS-PAGE buffer and boiled for 10 min. before loading onto a 4-12% Bis-Tris pre-cast gel (Invitrogen, Carlsbad, Calif.) for electrophoresis. Proteins were transferred onto PVDF membranes (Bio Rad, Hercules, Calif.) and blocked with AquaBlock™ (New England Biolabs, Ipswich, Mass.) for 1 hour at room temperature (RT). Primary antibody incubation was done in AquaBlock™ with rabbit anti-Met and […] phospho-Met (Tyr1234/1235) (1:1000, Cell Signaling Technology, Danvers, Mass.) overnight at 4° C. Alternating washes were done with PBS and PBST. Secondary antibody (IRDye) (Rockland, Gilbertsville, Pa.) incubations were done in AquaBlock™ for one hour at RT. Blots were imaged using LI-COR Odyssey Infrared Imaging System (LI-COR Biosciences, Lincoln, Nebr.).

MDCK cells = assay: Augmentation of HGF-dependent cell scattering in MDCK cells; format: cell-based, canine; settings: with HGF, Dihexa 10^−10 M to 10^−14M, four days
Description: augmentation of HGF-dependent c-Met phosphorylation in HEK293 cells, or 2) augmentation of HGF-dependent cell scattering in MDCK cells. All the compounds in Family one were tested using the c-Met phosphorylation assay. […]
MDCK cells were grown to 100% confluency on the coverslips in six-well plates and washed twice with PBS. The confluent coverslips were then aseptically transferred to new six well plates containing 900 μl serum free DMEM. Norleual, Hinge peptide, and/or HGF (2.5 ng/ml) were added to appropriate wells. Control wells received PBS vehicle. […] Media was removed and cells were fixed with methanol. Cells were stained with Diff-Quik Wright-Giemsa (Dade-Behring, Newark, Del.) and digital images were taken. Coverslips were removed with forceps and more digital images were captured. Pixel quantification of images was achieved using Image J and statistics were performed using Prism 5 and InStat v.3.05.
MDCK cells were grown to 100% confluency on the coverslips in six-well plates and washed twice with PBS. The confluent coverslips were then aseptically transferred to new six well plates containing 900 μl serum free DMEM. Norleual, Hinge peptide, and/or HGF (20 ng/ml) were added to appropriate wells. Control wells received PBS vehicle. […] Pixel quantification of images was achieved using Image J and statistics were performed using Prism 5 and InStat v.3.05.

rats = assay: Morris water maze with i.c.v. Dihexa and HGF antagonist Hinge; format: in vivo, rat; settings: scopolamine treated rats
6-OHDA lesioned rats = assay: Unilateral 6-OHDA substantia nigra lesion model; format: in vivo, rat
Description: FIG. 41. Dihexa restores performance in the rope hang test. Two weeks after producing a unilateral lesion with 6-OHDA in the substantia nigra, rats were treated with either 0.5 mg/kg of Dihexa or equivalent volumes of the vehicle ip.
FIG. 42A-C. Dihexa restored normal walking in the gait analysis test. Two weeks after producing a unilateral lesion with 6-OHDA in the substantia nigra, rats were treated with either 0.5 mg/kg of Dihexa or equivalent volumes of the vehicle ip. […] A, animal foot prints; B, left stride length; C, right stride length. Note that the dragging of the left hind leg observed in the untreated lesioned rats was absent from the treated group.
FIG. 43. Dihexa restores tyrosine hyroxlase staining, which is indicative of the presence of dopaminiergic neurons in the substantia nigra (SN). Two weeks after the induction of an unilateral 6-OHDA lesion, rats were treated with either 0.5 mg/kg Dihexa or an equivalent volume of vehicle ip. for 34 days.

[1] = system: CA1 neurons in coronal slices of rat hippocampus; assay: Hippocampal long-term potentiation with theta burst stimulation; format: cell-based; settings: Dihexa 1 μM applied 10 minutes prior to TBS
Description: FIG. 45. Effect of Dihexa (Hex) on hippocampal long-term potentiation (LTP) generated with theta burst (TBS) stimulation. LTP was monitored at CA1 neurons in coronal slices of rat hippocampus. Dihexa (1 μM) was applied 10 minutes prior to TBS. 1N=4. Dihexa application augmented LTP.

[2] = Dihexa plasma levels after IV infusion; format: in vivo, rat
Description: FIG. 46. Dihexa plasma levels after intravascular (IV) infusion. Dihexa was administered to adult male Sprague Dawley rats at 10 mg/kg. Plasma sample were collected and analyzed by HPLC-MS. Plasma data were modeled by non-compartmental analysis using WinNonlin® software.

[3] = Toxicity observation during Dihexa studies; format: in vivo; settings: studies lasting as long as 96 days
hippocampal neurons = assay: Immunocytochemistry: correlation of spines with synaptic markers; format: cell-based, rat; settings: HGF 10 ng/ml
[4] = saturating doses: HGF 100 ng/ml, Dihexa 10^−10 M
[5] = sub-threshold doses: HGF 50 ng/ml, Dihexa 10^−12 M
[6] = 0.5 mg/kg ip, started two weeks after lesion

In the case of `CCCCCC(=O)N[C@@H](Cc1ccc(O)cc1)C(=O)N[C@H](C(=O)NCCCCCC(N)=O)[C@@H](C)CC` [Dihexa, N-hexanoic-Tyr-Ile-(6)-aminohexanoic amide] (Hexanoyl-Tyr-Ile-[Ahx]-NH2), the “c-Met phosphorylation vs vehicle (aCSF)” value (c-Met receptor; [4]) is reported as “both increased c-Met phosphorylation; also recorded: effectively augment c-Met phosphorylation”, the “c-Met phosphorylation vs vehicle (aCSF)” value (c-Met receptor; [5]) is reported as “not statistically different from control treated slices; also recorded: did not significantly increase c-Met receptor phosphorylation” and the “HGF-dependent MDCK cell scattering” value (MDCK cells) is reported as “stimulate MDCK cell scattering; also recorded: markedly stimulates cell scattering even at picomolar affinities”. For the same molecule, the “HGF-dependent MDCK cell scattering” value (MDCK cells; listed as N-hexanoyl-Tyr-Ile-(6) aminohexamide) was “spectacularly augment HGF-dependent MDCK cell scattering”, the “Mean latency to find the pedestal, day one” value (rats) was 115.2 s and the “Mean latency to find the pedestal, final day (day 8)” value (rats) was 62.3 s. The “Mean latency to find the pedestal, fourth day” value (rats) was 63.0 s, the “Tyrosine hydroxylase staining in the substantia nigra” value (6-OHDA lesioned rats; 0.5 mg/kg ip for 34 days / six weeks) was “dramatic restoration of tyrosine hydroxylase (TH) staining; also recorded: completely restored the tyrosine hydroxylase staining in the SN” and the “Gait analysis, stride length” value (6-OHDA lesioned rats; [6]) was “recovery of normal motor function; also recorded: completely restored the normal stride length”. For the same molecule, the “Rope hang test performance” value (6-OHDA lesioned rats; [6]) was “completely restores performance in the rope hang test; also recorded: completely restored the performance of the treated animals on the rope hang test”, the “Recovery of SN TH staining” value (6-OHDA lesioned rats; three months of Dihexa treatment) was about 100% and the Long-term potentiation [1] was “enhances LTP; also recorded: augmented LTP”. The “Elimination (circulating) half-life t1/2” value ([2]; IV 10 mg/kg, adult male Sprague Dawley rats, non-compartmental analysis, 10 mg/kg) was > 12 days and 12.68 days, the Excretion ([2]; urine) was “excreted intact in the urine” and the Overt toxicity [3] was “no overt toxicity”.
With “HGF: Hepatocyte growth factor, recombinant, purchased from R&D Systems” the “c-Met phosphorylation vs vehicle (aCSF)” value (c-Met receptor; [4]) was “both increased c-Met phosphorylation; also recorded: effectively augment c-Met phosphorylation”, the “c-Met phosphorylation vs vehicle (aCSF)” value (c-Met receptor; [5]) was “not statistically different from control treated slices; also recorded: did not significantly increase c-Met receptor phosphorylation” and the “Percent correlation of spines to Synapsin” value (hippocampal neurons) was 98%. The “Mean number of spines per 50 μm dendrite length” value (hippocampal neurons; 5 days) was 33 spines per 50 μm dendrite length.
